The experiment concerns the target T1, CETP (Homo sapiens, UniProt P11597).
T1 sequence (P11597 18-493): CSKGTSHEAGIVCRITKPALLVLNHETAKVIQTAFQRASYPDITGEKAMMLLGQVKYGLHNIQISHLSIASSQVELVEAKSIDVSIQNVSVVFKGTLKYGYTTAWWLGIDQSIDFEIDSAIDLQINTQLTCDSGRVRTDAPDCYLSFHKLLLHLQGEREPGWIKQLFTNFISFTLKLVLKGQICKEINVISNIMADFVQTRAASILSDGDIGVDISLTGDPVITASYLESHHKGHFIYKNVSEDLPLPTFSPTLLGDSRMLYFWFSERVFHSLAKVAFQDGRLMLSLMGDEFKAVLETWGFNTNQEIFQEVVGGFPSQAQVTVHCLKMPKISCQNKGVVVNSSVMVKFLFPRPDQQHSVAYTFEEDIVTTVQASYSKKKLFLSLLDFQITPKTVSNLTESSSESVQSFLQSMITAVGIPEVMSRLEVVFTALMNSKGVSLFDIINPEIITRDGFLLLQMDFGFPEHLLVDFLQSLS
As to the kind of experiment: Assay of CETP Inhibition using Purified Components (Reconstituted Buffer Assay). In kind it is biochemical. More on the design: made in house; host or cells: CHO cells (serum-free conditioned medium). To be noted: Inhibition of CETP activity in reconstituted buffer assay; transfer of [3H]CE from HDL to LDL; read-out: IC50. How it is done:
Assay of CETP Inhibition using Purified Components (Reconstituted Buffer Assay)
The ability of compounds to inhibit CETP activity was assessed using an in vitro assay that measured the rate of transfer of radiolabeled cholesteryl ester ([^3H]CE) from HDL donor particles to LDL acceptor particles. Details of the assay are provided by Glenn, K. C. et al. (Glenn and Melton, “Quantification of Cholesteryl Ester Transfer Protein (CETP): A) CETP Activity and B) Immunochemical Assay of CETP Protein,” Meth. Enzymol., 263, 339-351 (1996)). Human recombinant CETP can be obtained from the serum-free conditioned medium of CHO cells transfected with a cDNA for CETP and purified as described by Wang, S. et al. (J. Biol. Chem. 267, 17487-17490 (1992)). To measure CETP activity, [^3H]CE-labeled-HDL, LDL, CETP and assay buffer (50 mM tris(hydroxymethyl)aminomethane, pH 7.4; 150 mM sodium chloride; 2 mM ethylenediamine-tetraacetic acid (EDTA); 1% bovine serum albumin) were incubated in a final volume of 200 μL, for 2 hours at 37° C. in 96 well plates. […] The inhibitors were then diluted 1:1 with CETP in assay buffer, and then 25 μL of that solution was mixed with 175 μL of lipoprotein pool for assay. Following incubation, LDL was differentially precipitated by the addition of 50 μL of 1% (w/v) dextran sulfate/0.5 M magnesium chloride, mixed by vortex, and incubated at room temperature for 10 minutes. A potion of the solution (200 μL) was transferred to a filter plate (Millipore). After filtration, the radioactivity present in the precipitated LDL was measured by liquid scintillation counting.
This value was defined as the IC50.
Examples of IC50 values determined by these methods are specified in Table 9.

What is called IC50 is the concentration that gives 50% inhibition. In the case of `COC(=O)c1cccc(COc2cccc(N(Cc3cccc(OC(F)(F)C(F)F)c3)CC(O)C(F)(F)F)c2)c1` (centres unmarked) [Example 387], the 50% inhibitory concentration (IC50) was 2.2 µM.

With `CC(C)(CO)COc1cccc(N(Cc2cccc(OC(F)(F)C(F)F)c2)CC(O)C(F)(F)F)c1` (centres unmarked) [Example 512], the half-inhibitory concentration (IC50) is 6.1 µM.

Take `OC(CN(Cc1ccc(OCc2ccccc2)c(OCc2ccccc2)c1)c1cccc(OC(F)(F)F)c1)C(F)(F)F` (centres unmarked) [Example 100]: the IC50 amounted to 90 µM.

Consider `CSc1ccc(Cc2cccc(N(Cc3cccc(OC(F)(F)C(F)F)c3)CC(O)C(F)(F)F)c2)cc1` (centres unmarked) [Example 526], for which the IC50 stood at 1.4 µM.

Regarding `COc1cc(Nc2cccc(N(Cc3cccc(OC(F)(F)C(F)F)c3)CC(O)C(F)(F)F)c2)cc(OC)c1OC` (centres unmarked) [Example 306], the IC50 came out at 25 µM.

As to `O=C(O)c1cccc(N(Cc2cccc(OC(F)(F)F)c2)CC(O)C(F)(F)F)c1` (centres unmarked) [Example 586], the IC50 is greater than 50 µM.

In the case of `CCNc1ccc(Oc2cccc(N(Cc3cccc(OC(F)(F)C(F)F)c3)CC(O)C(F)(F)F)c2)cc1` (centres unmarked) [Example 450B, 3-[[3-[4-(ethylamino)phenoxy]phenyl][[3-(1,1,2,2-tetrafluoroethoxy)phenyl]methyl]amino]-1,1,1-trifluoro-2-propanol], the IC50 was 1.1 µM.

Take `OC(CN(Cc1cccc(Cc2ccccc2)c1)c1cccc(Oc2ccccc2)c1)C(F)(F)F` (centres unmarked) [Example 596, 3-[(3-phenoxyphenyl)[[3-(phenylmethyl)phenyl]methyl]amino]-1,1,1-trifluoro-2-propanol]: the concentration for half-maximal inhibition (IC50) turned out to be 13 µM.

For `Oc1ccc(O)c(CN(CC(O)C(F)(F)F)c2cccc(OC(F)(F)F)c2)c1` (centres unmarked) [Example 358], the concentration for half-maximal inhibition (IC50) was greater than 100 µM.

Take `OC(CN(Cc1cc(C(F)(F)F)cc(C(F)(F)F)c1)c1cccc(F)c1)C(F)(F)F` (centres unmarked) [Example 677]: the IC50 is greater than 100 µM.

Turning to `CC(=O)c1cccc(Oc2cccc(N(Cc3cccc(OC(F)(F)C(F)F)c3)CC(O)C(F)(F)F)c2)c1` (centres unmarked) [Example 239], the concentration for half-maximal inhibition (IC50) amounted to 6.1 µM.

With `Cc1cccc(CN(CC(O)C(F)(F)F)c2cc(F)cc(F)c2)c1` (centres unmarked) [Example 81], the IC50 is greater than 100 µM.

In the case of `OC(CN(Cc1cccc(OC(F)(F)C(F)F)c1)c1cccc(OC2CCOCC2)c1)C(F)(F)F` (centres unmarked) [Example 507], the concentration for half-maximal inhibition (IC50) stood at 2.3 µM.

Regarding `OC(CN(Cc1cccc(C(F)(F)F)c1)c1cccc(Br)c1)C(F)(F)F` (centres unmarked) [Example 30], the 50% inhibitory concentration (IC50) was 22 µM.

On to `Cc1ccc(CN(CC(O)C(F)(F)F)c2ccccc2C)cc1` (centres unmarked) [Example 13], for which the IC50 was greater than 100 µM.

Consider `O=[N+]([O-])c1ccc(S(=O)(=O)c2cccc(N(Cc3cccc(OC(F)(F)C(F)F)c3)CC(O)C(F)(F)F)c2)cc1` (centres unmarked) [Example 483], for which the IC50 stood at 2.2 µM.

`OC(CN(Cc1cccc(Oc2cc(Cl)cc(Cl)c2)c1)c1cccc(Oc2ccccc2)c1)C(F)(F)F` (centres unmarked) [Example 114]: the concentration for half-maximal inhibition (IC50) came to 40 µM.

Take `Cc1c(COc2cccc(N(Cc3cccc(OC(F)(F)C(F)F)c3)CC(O)C(F)(F)F)c2)cccc1[N+](=O)[O-]` (centres unmarked) [Example 417]: the concentration for half-maximal inhibition (IC50) came to 17 µM.

For the molecule `COc1ccccc1N(Cc1ccc(C(F)(F)F)cc1)CC(O)C(F)(F)F` (centres unmarked) [Example 682], the IC50 was greater than 100 µM.

Take `CC(C)CC(=O)c1cccc(CN(CC(O)C(F)(F)F)c2cccc(Oc3ccccc3)c2)c1` (centres unmarked) [compound 621]: the concentration for half-maximal inhibition (IC50) was 9.3 µM.

As for `OC(CN(Cc1ccc(OC(F)(F)F)cc1)c1cccc(Cl)c1)C(F)(F)F` (centres unmarked) [Example 55], the IC50 turned out to be 20 µM.

`OC(CN(Cc1cccc(C(F)(F)F)c1)Cc1ccccc1F)C(F)(F)F` (centres unmarked) [compound 184]: the half-maximal inhibitory concentration (IC50) is greater than 100 µM.

For `OC(CN(Cc1cccc(OC(F)(F)C(F)F)c1)c1cccc(Cc2cccc(Cl)c2)c1)C(F)(F)F` (centres unmarked) [Example 525], the IC50 was found to be 0.76 µM.

With `Cc1ccc(-c2cccc(N(Cc3cccc(OC(F)(F)C(F)F)c3)CC(O)C(F)(F)F)c2)cc1` (centres unmarked) [Example 566], the half-inhibitory concentration (IC50) worked out at 2.7 µM.

On to `OC(CN(Cc1cc(C(F)(F)F)cc(C(F)(F)F)c1)c1cccc(Oc2ccccc2)c1)C(F)(F)F` (centres unmarked) [Example 145], for which the half-maximal inhibitory concentration (IC50) was 15 µM.

For the molecule `CCOc1cccc(CN(CC(O)COC(F)(F)C(F)F)c2cccc(Oc3ccccc3)c2)c1` (centres unmarked) [Example 213], the IC50 turned out to be 11 µM.
